From US8404648B2, “Polypeptides KXK and their use” (Sederma, priority 2006, dated 2013)
Values joined by “and” are separate entries in the source; they are usually repeats but may differ in a detail not shown here. Equal values may be shown once. Where a SMILES comes first, the peptide text is derived from it. Where no end group is shown, it is not given here. The star is where a group is joined. Ela = elaidoyl, CCCCCCCC/C=C/CCCCCCCC(=O)*; Palmitoyl = CCCCCCCCCCCCCCCC(=O)*

Tests used:
Format in all cases: cell-based
[1] = tested on: Normal Human Dermal Fibroblasts (NHDF); assay: Survival estimated on cell layer using a fluorescent probe; conditions: 3 days of incubation
Experimental: (§1) Principle of the study: Normal Human Dermal Fibroblasts (NHDF) were cultivated in an appropriate culture medium (i.e. complete DMEM with fetal calf serum). After cell anchorage, cell layers were rinsed with saline buffer and contact with molecules to be tested were performed in a complete DMEM without fetal calf serum. This medium contained ascorbate (sodium salt) and beta-aminopropionitrile, monofumarate. After 3 days of incubation, supernatants were collected and frozen. Survival was estimated on cell layer using a fluorescent probe. Collagen I was estimated using an original direct ELISA method, Fibronectin and Collagen IV were estimated using ELISA commercial kits.

[2] = tested on: Collagen I synthesis, Normal Human Dermal Fibroblasts (NHDF); assay: Collagen I synthesis by NHDF, direct ELISA on supernatants after 3 days; conditions: for Variation of Collagen I synthesis (mean, in % of negative control): NHDF, 3 days; for Collagen I synthesis, result in words: vs negative control
Experimental: (§2) Products: Pal-KTFK (SEQ ID NO: 7), Ela-KTAK (SEQ ID NO: 9) and Ela-KTFK (SEQ ID No: 8) were tested from 2 to 6 ppm, and Pal-KAvaK was tested from 1 to 4 ppm. Solvent=DMSO 0.08%. TGF-beta1 10^−6%, was the positive control for collagen I and fibronectin studies.
as §1
(§3) Results: Statistical analysis were performed on Collagen I data (n=5/assay) or fibronectin data (n=5/assay) or Collagen IV data (n=5/assay). Results obtained with molecules were compared to negative control. All data are in ng/10E6 cells. A Student t test for non paired values was used; significativity was obtained if p<0.05 or p<0.01.

[3] = tested on: Fibronectin synthesis, Normal Human Dermal Fibroblasts (NHDF); assay: Fibronectin synthesis by NHDF, commercial ELISA kit on supernatants after 3 days; conditions: for Variation of Fibronectin synthesis (mean, in % of negative control): NHDF, 3 days; for Fibronectin synthesis, result in words: vs negative control
Experimental: as §2, §1, §3

[4] = tested on: Collagen IV synthesis, Normal Human Dermal Fibroblasts (NHDF); assay: Collagen IV synthesis by NHDF, commercial ELISA kit on supernatants after 3 days; conditions: for Variation of Collagen IV synthesis (mean, in % of negative control): NHDF, 3 days
Experimental: as §2, §1, §3

[5] = positive control, TGF-beta1 10^−6% (10 ppb)

CCCCCCCCCCCCCCCC(=O)N[C@@H](CCCCN)C(=O)N[C@H](C(=O)N[C@@H](Cc1ccccc1)C(=O)N[C@@H](CCCCN)C(=O)O)[C@@H](C)O [Pal-KTFK, Pal-Lys-Thr-Phe-Lys] (Palmitoyl-KTFK-OH)
maximal concentration accepted by the cells [1]: ~6 ppm

Ela-Lys-Thr-Ala-Lys (Ela-KTAK) [N-elaidoyl tetrapeptide Lys-Thr-Ala-Lys]
Variation of Collagen I synthesis (mean, in % of negative control) ([2]; 2 ppm): 6%
Variation of Collagen I synthesis (mean, in % of negative control) ([2]; 4 ppm): 18%
Variation of Collagen I synthesis (mean, in % of negative control) ([2]; 6 ppm): 45%
Collagen I synthesis, result in words ([2]; 6 ppm): increase
Variation of Fibronectin synthesis (mean, in % of negative control) ([3]; 2 ppm): 16%
Variation of Fibronectin synthesis (mean, in % of negative control) ([3]; 4 ppm): 32%
Fibronectin synthesis, result in words ([3]; 4 ppm): increase
Variation of Fibronectin synthesis (mean, in % of negative control) ([3]; 6 ppm): 31%

Ela-Lys-Thr-Phe-Lys (Ela-KTFK) [N-elaidoyl tetrapeptide Lys-Thr-Phe-Lys]
Variation of Collagen I synthesis (mean, in % of negative control) ([2]; 2 ppm): 6%
Variation of Collagen I synthesis (mean, in % of negative control) ([2]; 4 ppm): 19%
Variation of Collagen I synthesis (mean, in % of negative control) ([2]; 6 ppm): 49%
Collagen I synthesis, result in words ([2]; 6 ppm): significant increase
Variation of Fibronectin synthesis (mean, in % of negative control) ([3]; 2 ppm): 10%
Variation of Fibronectin synthesis (mean, in % of negative control) ([3]; 4 ppm): 25%
Variation of Fibronectin synthesis (mean, in % of negative control) ([3]; 6 ppm): 42%
Fibronectin synthesis, result in words ([3]; 6 ppm): significant increase
Variation of Collagen IV synthesis (mean, in % of negative control) ([4]; 2 ppm): 10%
Variation of Collagen IV synthesis (mean, in % of negative control) ([4]; 4 ppm): 7%
Variation of Collagen IV synthesis (mean, in % of negative control) ([4]; 6 ppm): 7%

Pal-Lys-Ava-Lys [Pal-KAvaK]
Variation of Collagen I synthesis (mean, in % of negative control) ([2]; 1 ppm): 1%
Variation of Collagen I synthesis (mean, in % of negative control) ([2]; 2 ppm): 14%
Variation of Collagen I synthesis (mean, in % of negative control) ([2]; 4 ppm): 49%
Collagen I synthesis, result in words ([2]; 4 ppm): increase
Variation of Fibronectin synthesis (mean, in % of negative control) ([3]; 1 ppm): 14%
Variation of Fibronectin synthesis (mean, in % of negative control) ([3]; 2 ppm): 15%
Variation of Fibronectin synthesis (mean, in % of negative control) ([3]; 4 ppm): 54%
Fibronectin synthesis, result in words ([3]; 4 ppm): increase
Variation of Collagen IV synthesis (mean, in % of negative control) ([4]; 1 ppm): 8%
Variation of Collagen IV synthesis (mean, in % of negative control) ([4]; 2 ppm): 9%
Variation of Collagen IV synthesis (mean, in % of negative control) ([4]; 4 ppm): 23%
Collagen IV synthesis, result in words ([4]; 4 ppm, vs negative control): increase

TGF-beta: TGF-beta1 10^−6%, the positive control for collagen I and fibronectin studies [reference compound]
Collagen I synthesis, result in words [2, 5]: significant increase
Variation of Fibronectin synthesis (mean, in % of negative control) ([3]; 10 ppb): 124% and 85% and 87%
Fibronectin synthesis, result in words [3, 5]: significant increase
Variation of Collagen IV synthesis (mean, in % of negative control) ([4]; 10 ppb): 12%
